# Target: T1, human recombinant CD38 enzyme (Homo sapiens, UniProt P28907)
# T1 construct: purchased R&D Systems H7006
# T1 sequence (P28907 1-300): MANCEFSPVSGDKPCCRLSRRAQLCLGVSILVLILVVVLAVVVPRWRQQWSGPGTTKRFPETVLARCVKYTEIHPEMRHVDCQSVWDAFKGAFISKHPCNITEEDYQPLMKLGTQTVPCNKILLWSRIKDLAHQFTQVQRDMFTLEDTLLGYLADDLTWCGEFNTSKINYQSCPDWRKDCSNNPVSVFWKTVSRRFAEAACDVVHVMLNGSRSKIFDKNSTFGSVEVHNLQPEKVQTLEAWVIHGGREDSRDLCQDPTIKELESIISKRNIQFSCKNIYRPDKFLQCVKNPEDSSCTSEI
# Assay: Human recombinant enzyme assay (fluorimetric CD38 enzyme assay, ε-NAD substrate)
# Format: biochemical
# Conditions: recombinant CD38 100 ng/ml, ε-NAD 100 µM, pH = 6.0, 37°C, reaction time 30 min; read-out: IC50 (nM) ENAD
# Procedure: Enzyme assay on human recombinant CD38 enzyme were performed in order to determine the in vitro potency of the newly synthesized compounds. IC50 values were determined for the test compounds and used to explore the structure-activity relationships (SAR).
# N6-etheno-NAD (ε-NAD), a NAD analogue previously shown to be a convenient substrate of CD38 enzyme activity (Graeff et al. J. Biol. Chem. 269, pp 30260-30367, […]) was used to measure the activity of human recombinant CD38 and cell surface enzyme activity.
# A fluorimetric CD38 enzyme assay was performed as described by Graeff et al. The reaction was started with 10 µl of N6-etheno-NAD (ε-NAD) substrate, final concentration 100 µM, in a final volume of 0.1 ml buffered with 50 mM HEPES, 0.05% BRIJ, pH = 6.0 containing 100 ng/ml recombinant CD38 (R&D Systems, H7006). Cleavage of ε-NAD, which causes a 10-fold fluorescence enhancement, was continuously followed at 37°C in a BMG Polarstar spectrofluorometer at an emission wavelength of 410 nm and an excitation of 300 nm, reaction time was 30 min. NADase activity was expressed as Δ relative fluorescence/min. The rate of enzyme reactions were compared in the presence and absence of inhibitor molecule, the IC50 values were calculated with Biostat Speed program.
row,Structure (SMILES),IC50 [nM]
1,"O=C1N/C(=C\c2ccncc2)C(=O)N1C1CCCCC1 [Compound 9, 3-Cyclohexyl-5-[1-pyridin-4-yl-meth-(Z)-ylidene]-imidazolidine-2,4-dione]",292
2,"O=C1N/C(=C\c2ccncc2)C(=O)N1c1ccc(Cl)c(Cl)c1 [Compound 6, 3-(3,4-Dichloro-phenyl)-5-[1-pyridin-4-yl-meth-(Z)-ylidene]-imidazolidine-2,4-dione]",50
3,"CC(C)(O)CCN1C(=O)N/C(=C\c2ccncc2)C1=O [Compound 57, 3-(3-Hydroxy-3-methyl-butyl)-5-[1-pyridin-4-yl-meth-(Z)-ylidene] -imidazolidine-2,4-dione]",20
4,"CCC(C)N1C(=O)N/C(=C\c2ccncc2)C1=O (stereo not drawn) [Compound 42, 3-sec-Butyl-5-[1-pyridin-4-yl-meth-(Z)-ylidene]-imidazolidine-2,4-dione]",868
5,"COc1ccc(N2C(=O)N/C(=C\c3ccncc3)C2=O)cc1 [Compound 17, 3-(4-Methoxy-phenyl)-5-[1-pyridin-4-yl-meth-(Z)-ylidene]-imidazolidine-2,4-dione]",55
6,"O=C(O)c1ccc(N2C(=O)N/C(=C\c3ccncc3)C2=O)cc1 [Compound 15, 4-{2,5-Dioxo-4-[1-pyridin-4-yl-meth-(Z)-ylidene]-imidazolidin-l-yl}-benzoic acid]",110
7,"C[S+]([O-])c1ccc(N2C(=O)N/C(=C\c3ccncc3)C2=O)cc1 (stereo not drawn) [Compound 25, 3-(4-Methanesulfinyl-phenyl)-5-[1-pyridin-4-yl-meth-(Z)-ylidene]-imidazolidine-2,4-dione]",60
8,"C[C@@H]1CN(C(=O)c2ccc(N3C(=O)N/C(=C\c4ccncc4)C3=O)cc2)C[C@H](C)O1 [Compound 45, 3-[4-((2R,6S)-2,6-Dimethyl-morpholine-4-carbonyl)-phenyl]-5-[1-pyridin-4-yl-meth-(Z)-ylidene]-imidazolidine-2,4-dione]",34
9,"O=C(NC1CCCC1)c1ccc(N2C(=O)N/C(=C\c3ccncc3)C2=O)cc1 [Compound 49, N-Cyclopentyl-4-{2,5-dioxo-4-[1-pyridm-4-yl-meth-(Z)-ylidene]-imidazolidm-1-yl}-benzamide]",50
10,"O=C(NC1CC1)c1ccc(N2C(=O)N/C(=C\c3ccncc3)C2=O)cc1 [Compound 50, N-Cyclopropyl-4-{2,5-dioxo-4-[1-pyridin-4-yl-meth-(Z)-ylidene]-imidazolidin-1-yl}-benzamide]",63
11,"Cc1ccc(N2C(=O)N/C(=C\c3ccncc3)C2=O)cc1 [Compound 19, 5-[1-Pyndin-4-yl-meth-(Z)-ylidene]-3-p-totyl-imidazolidine-2,4-dione]",30
12,"O=C1N/C(=C\c2ccncc2)C(=O)N1c1ccc(Br)cc1 [Compound 20, 3-(4-Bromo-phenyl)-5-[1-pyridin-4-yl-meth-(Z)-ylidene]-imidazolidine-2,4-dione]",20

# The next lines start with the values.
row,IC50 [nM],Structure (SMILES)
1,65,"O=C(NCCN1CCOCC1)c1cccc(N2C(=O)N/C(=C\c3ccncc3)C2=O)c1 [Compound 34, 3-{2,5-Dioxo-4-[1-pyridin-4-yl-meth-(Z)-ylidene]-imidazolidin-1-yl}-N-(2-morpholin-4-yl-ethyl)-benzamide]"
2,61,"O=C1N/C(=C\c2ccncc2)C(=O)N1c1cccnc1 [Compound 39, 3-Pyridin-3-yl-5-[1-pyridin-4-yl-meth-(Z)-ylidene]-imidazolidine-2,4-dione]"
3,28,"O=C1N/C(=C\c2ccncc2)C(=O)N1c1ccc(OC(F)(F)F)cc1 [Compound 30, 5-[1-Pyridin-4-yl-meth-(Z)-ylidene]-3-(4-trifluoromethoxy-phenyl)-imidazolidine-2,4-dione]"
4,38,"O=C(O)Cc1ccc(N2C(=O)N/C(=C\c3ccncc3)C2=O)cc1 [Compound 32, (4-{2,5-Dioxo-4-[1-pyndin-4-yl-meth-(Z)-ylidene]-imidazolidin-1-yl}-phenyl)-acetic acid]"
5,214,"O=C1N/C(=C\c2ccncc2)C(=O)N1C1CCC(O)CC1 (stereo not drawn) [Compound 40, 3-(4-Hydroxy-cyclohexyl)-5-[1-pyridin-4-yl-meth-(Z)-ylidene]-imidazolidine-2,4-dione]"
6,22,"CS(=O)(=O)c1ccc(N2C(=O)N/C(=C\c3ccncc3)C2=O)cc1 [Compound 26, 3-(4-Methanesulfonyl-phenyl)-5-[1-pyridin-4-yl-meth-(Z)-ylidene]-imidazolidine-2,4-dione]"
7,74,"CC1CCN(C(=O)c2ccc(N3C(=O)N/C(=C\c4ccncc4)C3=O)cc2)CC1 [Compound 47, 3-[4-(4-Methyl-piperidine-1-carbonyl)-phenyl]-5-[1-pyridin-4-yl-meth-(Z)-ylidene]-imidazolidine-2,4-dione]"
8,43,"O=C1N/C(=C\c2ccncc2)C(=O)N1c1ccc(C(F)(F)F)cc1 [Compound 31, 5-[1-Pyridin-4-yl-meth-(Z)-ylidene]-3-(4-trifluoromethyl-phenyl)-imidazolidine-2,4-dione]"
9,490,"O=C(O)CN1C(=O)N/C(=C\c2ccncc2)C1=O [Compound 46, {2,5-Dioxo-4-[1-pyridin-4-yl-meth-(Z)-ylidene]-imidazolidin-1-yl}-acetic acid]"
10,60,"CCc1ccc(N2C(=O)N/C(=C\c3ccncc3)C2=O)cc1 [Compound 4, 3-(4-Ethyl-phenyl)-5-[1-pyridin-4-yl-meth-(Z)-ylidene]-imidazolidine-2,4-dione]"
11,240,"O=C1N/C(=C\c2ccncc2)C(=O)N1CCNC(=O)C(F)(F)F [Compound 65, N-(2-{2,5-Dioxo-4-[1-pyridin-4-yl-meth-(Z)-ylidene]-imidazolidin-1-yl}-ethyl)-2,2,2-trifluoro-acetamide]"
12,60,"O=C1N/C(=C\c2ccncc2)C(=O)N1CCc1ccccc1 [Compound 18, 3-Phenethyl-5-[1-pyridin-4-yl-meth-(Z)-ylidene]-imidazolidine-2,4-dione]"
13,12,"O=C1N/C(=C\c2ccncc2)C(=O)N1CC1(CO)CCC1 [Compound 63, 3-(1-Hydroxymethyl-cyclobutylmethyl)-5-[1-pyridin-4-yl-meth-(Z)-ylidene]-imidazolidine-2,4-dione]"
14,63,"O=C(NC1CCCCC1)c1ccc(N2C(=O)N/C(=C\c3ccncc3)C2=O)cc1 [Compound 51, N-Cyclohexyl-4-{2,5-dioxo-4-[1-pyndin-4-yl-meth-(Z)-ylidene]-imidazolidin-1-yl}-benzamide]"
15,42,"CC(C)(CO)CN1C(=O)N/C(=C\c2ccncc2)C1=O [Compound 52, 3-(3-Hydroxy-2,2-dimethyl-propyl)-5-[1-pyridin-4-yl-meth-(Z)-ylidene]-imidazolidine-2,4-dione]"
16,50,"Cc1cccc(N2C(=O)N/C(=C\c3ccncc3)C2=O)c1 [Compound 3, 5-[1-Pyridin-4-yl-meth-(Z)-ylidene]-3-m-tolyl-imidazolidine-2,4-dione]"
17,77,"O=C1N/C(=C\c2ccncc2)C(=O)N1c1cccc(C(F)(F)F)c1 [Compound 16, 5-[1-Pyridin-4-yl-meth-(Z)-ylidene]-3-(3-triftuoromethyl-phenyl)-imidazolidine-2,4-dione]"
18,26,"CC(=O)c1ccc(N2C(=O)N/C(=C\c3ccncc3)C2=O)cc1 [Compound 23, 3-(4-Acetyl-phenyl)-5-[1-pyridin-4-yl-meth-(Z)-ylidene]-imidazolidine-2,4-dione]"
